Assay results taken from PubChem BioAssay (NCI).
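The compound was tested at five concentrations on cells cultured in 96-well plates, with a 48-hour exposure period. TGI: concentration producing complete growth inhibition.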

Legend:
Assay in all cases: DTP human tumour cell line panel, 48 h
[1] = system: NCI-H226 lung
[2] = system: SK-MEL-5 melanoma
[3] = system: UO-31 renal
[4] = system: OVCAR-5 ovarian
[5] = system: KM20L2 colon
[6] = system: LOX IMVI melanoma
[7] = system: A549 NSCLC
[8] = system: HCT-116 colon
[9] = system: SF-268 CNS
[10] = system: HT29 colon
[11] = system: SNB-75 CNS
[12] = system: M19-MEL melanoma
[13] = system: 786-0 renal
[14] = system: MOLT-4 leukemia
[15] = system: MALME-3M melanoma
[16] = system: UACC-62 melanoma
[17] = system: ACHN renal
[18] = system: KM12 colon
[19] = system: TK-10 renal
[20] = system: OVCAR-3 ovarian
[21] = system: SF-539 CNS
[22] = system: RXF 393 renal
[23] = system: IGROV1 ovarian
[24] = system: HOP-62 NSCLC
[25] = system: RXF-631 renal
[26] = system: CAKI-1 renal
[27] = system: HCC-2998 colon
[28] = system: COLO 205 colon
[29] = system: SF-295 CNS
[30] = system: SR leukemia
[31] = system: SW-620 colon
[32] = system: U251 CNS
[33] = system: M14 melanoma
[34] = system: OVCAR-8 ovarian
[35] = system: HCT-15 colon
[36] = system: LXFL 529 NSCLC
[37] = system: DLD-1 colon
[38] = system: SK-MEL-2 melanoma
[39] = system: NCI-H23 lung
[40] = system: SK-OV-3 ovarian
[41] = system: RPMI-8226 leukemia
[42] = system: SNB-78 CNS
[43] = system: A498 renal
[44] = system: NCI-H460 lung
[45] = system: K-562 leukemia
[46] = system: XF 498 CNS
[47] = system: HL-60(TB) leukemia
[48] = system: OVCAR-4 ovarian
[49] = system: SK-MEL-28 melanoma
[50] = system: SN12C renal
[51] = system: EKVX NSCLC
[52] = system: UACC-257 melanoma
[53] = system: SNB-19 CNS
[54] = system: HOP-92 NSCLC
[55] = system: HOP-18 NSCLC
[56] = system: DMS 114 small cell lung
[57] = system: NCI-H522 lung
[58] = system: CCRF-CEM leukemia
[59] = system: DMS 273 small cell lung

Structure (SMILES): O=C(COc1ccc2c(=O)cc(-c3ccc(Cl)cc3)oc2c1)N1CCN(c2ccccc2)CC1
- TGI [1]: > 100 µM
- TGI [2]: > 100 µM
- TGI [3]: > 100 µM
- TGI [4]: > 100 µM
- TGI [5]: > 100 µM
- TGI [6]: > 100 µM
- TGI [7]: > 100 µM
- TGI [8]: > 100 µM
- TGI [9]: > 100 µM
- TGI [10]: > 100 µM
- TGI [11]: > 100 µM
- TGI [12]: > 100 µM
- TGI [13]: > 100 µM
- TGI [14]: > 100 µM
- TGI [15]: > 100 µM
- TGI [16]: > 100 µM
- TGI [17]: > 100 µM
- TGI [18]: > 100 µM
- TGI [19]: > 100 µM
- TGI [20]: > 100 µM
- TGI [21]: > 100 µM
- TGI [22]: > 100 µM
- TGI [23]: > 100 µM
- TGI [24]: > 100 µM
- TGI [25]: > 100 µM
- TGI [26]: > 100 µM
- TGI [27]: > 100 µM
- TGI [28]: > 100 µM
- TGI [29]: > 100 µM
- TGI [30]: > 100 µM
- TGI [31]: > 100 µM
- TGI [32]: > 100 µM
- TGI [33]: > 100 µM
- TGI [34]: > 100 µM
- TGI [35]: > 100 µM
- TGI [36]: > 100 µM
- TGI [37]: > 100 µM
- TGI [38]: > 100 µM
- TGI [39]: > 100 µM
- TGI [40]: > 100 µM
- TGI [41]: > 100 µM
- TGI [42]: > 100 µM
- TGI [43]: > 100 µM
- TGI [44]: > 100 µM
- TGI [45]: > 100 µM
- TGI [46]: > 100 µM
- TGI [47]: > 100 µM
- TGI [48]: > 100 µM
- TGI [49]: > 100 µM
- TGI [50]: > 100 µM
- TGI [51]: > 100 µM
- TGI [52]: > 100 µM
- TGI [53]: > 100 µM
- TGI [54]: > 100 µM

Structure (SMILES): Cc1nc(N)nc(N)c1CCCCc1ccccc1
- TGI [2]: 17.1 µM
- TGI [3]: > 100 µM
- TGI [4]: > 100 µM
- TGI [5]: 63.3 µM
- TGI [6]: 23.9 µM
- TGI [7]: > 100 µM
- TGI [8]: > 100 µM
- TGI [9]: 45.7 µM
- TGI [55]: > 100 µM
- TGI [10]: 16.9 µM
- TGI [11]: > 100 µM
- TGI [12]: 30.6 µM
- TGI [13]: 19 µM
- TGI [14]: 63.5 µM
- TGI [15]: 26.5 µM
- TGI [16]: 76.8 µM
- TGI [17]: > 100 µM
- TGI [18]: > 100 µM
- TGI [19]: 88.7 µM
- TGI [20]: 99.4 µM
- TGI [21]: 36 µM
- TGI [22]: 49.8 µM
- TGI [23]: > 100 µM
- TGI [24]: 56.4 µM
- TGI [25]: 39.1 µM
- TGI [26]: > 100 µM
- TGI [27]: 22.7 µM
- TGI [28]: 21 µM
- TGI [29]: > 100 µM
- TGI [30]: 38.4 µM
- TGI [31]: > 100 µM
- TGI [32]: 51.4 µM
- TGI [33]: 19.7 µM
- TGI [34]: > 100 µM
- TGI [35]: 63.3 µM
- TGI [56]: 24.1 µM
- TGI [36]: 73.8 µM
- TGI [37]: > 100 µM
- TGI [38]: 40.9 µM
- TGI [39]: 20.6 µM
- TGI [40]: > 100 µM
- TGI [41]: 45.8 µM
- TGI [42]: > 100 µM
- TGI [43]: > 100 µM
- TGI [44]: 81.4 µM
- TGI [45]: 18.1 µM
- TGI [47]: 20 µM
- TGI [48]: > 100 µM
- TGI [50]: > 100 µM
- TGI [51]: > 100 µM
- TGI [57]: 31.6 µM
- TGI [58]: 24.8 µM
- TGI [52]: 28.6 µM
- TGI [53]: > 100 µM
- TGI [59]: 20.5 µM
- TGI [54]: 54.6 µM

Structure (SMILES): O=C1C(c2ccc([N+](=O)[O-])cc2)=[N+]([O-])c2ccc([N+](=O)[O-])cc21
- TGI [1]: > 100 µM
- TGI [2]: > 100 µM
- TGI [3]: > 100 µM
- TGI [4]: > 100 µM
- TGI [6]: > 100 µM
- TGI [7]: > 100 µM
- TGI [9]: > 100 µM
- TGI [55]: > 100 µM
- TGI [10]: > 100 µM
- TGI [11]: > 100 µM
- TGI [12]: 88.2 µM
- TGI [13]: > 100 µM
- TGI [14]: > 100 µM
- TGI [16]: 47.5 µM
- TGI [17]: > 100 µM
- TGI [18]: > 100 µM
- TGI [19]: > 100 µM
- TGI [20]: 55.8 µM
- TGI [21]: > 100 µM
- TGI [22]: > 100 µM
- TGI [23]: 76.9 µM
- TGI [25]: > 100 µM
- TGI [28]: > 100 µM
- TGI [29]: > 100 µM
- TGI [30]: > 100 µM
- TGI [31]: > 100 µM
- TGI [32]: > 100 µM
- TGI [33]: > 100 µM
- TGI [34]: > 100 µM
- TGI [56]: > 100 µM
- TGI [36]: > 100 µM
- TGI [37]: > 100 µM
- TGI [39]: > 100 µM
- TGI [40]: 83.2 µM
- TGI [41]: > 100 µM
- TGI [42]: > 100 µM
- TGI [44]: > 100 µM
- TGI [45]: > 100 µM
- TGI [47]: 43.7 µM
- TGI [48]: > 100 µM
- TGI [49]: > 100 µM
- TGI [51]: > 100 µM
- TGI [58]: 74.1 µM
- TGI [53]: > 100 µM
- TGI [59]: > 100 µM

Structure (SMILES): Cc1ccc(S(=O)(=O)CC(=O)CC(=O)C(=O)Nc2cccc(C(F)(F)F)c2)cc1
- TGI [1]: > 100 µM
- TGI [2]: > 100 µM
- TGI [3]: > 100 µM
- TGI [5]: > 100 µM
- TGI [6]: > 100 µM
- TGI [7]: > 100 µM
- TGI [8]: > 100 µM
- TGI [9]: > 100 µM
- TGI [10]: > 100 µM
- TGI [11]: > 100 µM
- TGI [12]: > 100 µM
- TGI [13]: > 100 µM
- TGI [14]: > 100 µM
- TGI [15]: > 100 µM
- TGI [16]: > 100 µM
- TGI [17]: > 100 µM
- TGI [18]: > 100 µM
- TGI [19]: > 100 µM
- TGI [20]: > 100 µM
- TGI [21]: > 100 µM
- TGI [23]: > 100 µM
- TGI [25]: > 100 µM
- TGI [26]: > 100 µM
- TGI [29]: > 100 µM
- TGI [30]: > 100 µM
- TGI [31]: > 100 µM
- TGI [32]: > 100 µM
- TGI [33]: > 100 µM
- TGI [35]: > 100 µM
- TGI [36]: > 100 µM
- TGI [37]: > 100 µM
- TGI [38]: > 100 µM
- TGI [39]: > 100 µM
- TGI [40]: > 100 µM
- TGI [41]: > 100 µM
- TGI [42]: > 100 µM
- TGI [45]: > 100 µM
- TGI [46]: > 100 µM
- TGI [47]: > 100 µM
- TGI [49]: > 100 µM
- TGI [50]: > 100 µM
- TGI [51]: > 100 µM
- TGI [57]: > 100 µM
- TGI [58]: > 100 µM
- TGI [52]: > 100 µM
- TGI [53]: > 100 µM
- TGI [59]: > 100 µM
- TGI [54]: > 100 µM

Structure (SMILES): CN(C)C(=S)OC(Cn1cncn1)c1ccc(Cl)cc1Cl (stereo not drawn)
- TGI [1]: > 100 µM
- TGI [2]: > 100 µM
- TGI [3]: > 100 µM
- TGI [4]: > 100 µM
- TGI [5]: > 100 µM
- TGI [6]: > 100 µM
- TGI [7]: > 100 µM
- TGI [8]: > 100 µM
- TGI [9]: > 100 µM
- TGI [55]: > 100 µM
- TGI [10]: > 100 µM
- TGI [11]: > 100 µM
- TGI [12]: > 100 µM
- TGI [13]: > 100 µM
- TGI [14]: > 100 µM
- TGI [15]: > 100 µM
- TGI [16]: > 100 µM
- TGI [17]: > 100 µM
- TGI [18]: > 100 µM
- TGI [19]: > 100 µM
- TGI [20]: > 100 µM
- TGI [21]: > 100 µM
- TGI [22]: > 100 µM
- TGI [23]: > 100 µM
- TGI [24]: > 100 µM
- TGI [25]: > 100 µM
- TGI [26]: > 100 µM
- TGI [27]: > 100 µM
- TGI [28]: > 100 µM
- TGI [29]: > 100 µM
- TGI [31]: > 100 µM
- TGI [32]: > 100 µM
- TGI [33]: > 100 µM
- TGI [34]: > 100 µM
- TGI [35]: > 100 µM
- TGI [56]: > 100 µM
- TGI [36]: > 100 µM
- TGI [37]: > 100 µM
- TGI [38]: > 100 µM
- TGI [39]: > 100 µM
- TGI [40]: > 100 µM
- TGI [41]: > 100 µM
- TGI [43]: > 100 µM
- TGI [44]: > 100 µM
- TGI [45]: > 100 µM
- TGI [47]: > 100 µM
- TGI [48]: > 100 µM
- TGI [49]: > 100 µM
- TGI [50]: > 100 µM
- TGI [51]: > 100 µM
- TGI [57]: > 100 µM
- TGI [52]: > 100 µM
- TGI [53]: > 100 µM
- TGI [59]: > 100 µM
- TGI [54]: > 100 µM
